Results reported in ChEMBL document CHEMBL3132769, “Fragment growing to retain or alter the selectivity of anchored kinase hinge-binding fragments” (Medchemcomm, 2014).

What was measured:
[1] = biological target: Protein kinase C theta type (Homo sapiens) (UniProt Q04759); experiment: Inhibition of human truncated PKC theta expressed in baculovirus assessed as substrate phosphorylation using fluorescence-labelled peptides as substrate at 0.2 uM after 90 mins by microfluidic peptide phosphorylation assay
Chain of Protein kinase C theta type (Homo sapiens) (Q04759 whole entry, looked up, the tested form may be a part): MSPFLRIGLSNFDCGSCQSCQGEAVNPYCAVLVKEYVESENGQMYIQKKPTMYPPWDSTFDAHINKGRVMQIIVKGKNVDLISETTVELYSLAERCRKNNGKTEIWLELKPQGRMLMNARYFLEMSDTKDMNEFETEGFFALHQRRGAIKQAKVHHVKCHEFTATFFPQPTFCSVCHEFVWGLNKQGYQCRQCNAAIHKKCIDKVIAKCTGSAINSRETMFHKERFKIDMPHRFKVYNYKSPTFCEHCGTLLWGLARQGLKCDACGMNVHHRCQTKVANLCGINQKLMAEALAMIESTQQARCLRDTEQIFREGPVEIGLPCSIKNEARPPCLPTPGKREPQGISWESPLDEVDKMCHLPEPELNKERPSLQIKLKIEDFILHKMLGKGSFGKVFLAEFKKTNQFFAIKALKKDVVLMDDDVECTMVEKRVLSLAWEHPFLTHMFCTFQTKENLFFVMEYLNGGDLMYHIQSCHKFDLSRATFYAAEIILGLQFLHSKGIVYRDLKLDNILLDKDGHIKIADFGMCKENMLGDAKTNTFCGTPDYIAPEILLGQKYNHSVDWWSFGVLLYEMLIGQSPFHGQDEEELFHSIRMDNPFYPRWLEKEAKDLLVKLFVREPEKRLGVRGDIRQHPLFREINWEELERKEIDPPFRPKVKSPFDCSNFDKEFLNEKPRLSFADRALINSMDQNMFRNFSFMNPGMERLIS

[2] = biological target: T1, Aurora kinase C (Homo sapiens) (UniProt Q9UQB9); experiment: Inhibition of human full length AurC expressed in baculovirus assessed as substrate phosphorylation using fluorescence-labelled peptides as substrate at 420 uM after 90 mins by microfluidic peptide phosphorylation assay
T1 sequence (whole entry): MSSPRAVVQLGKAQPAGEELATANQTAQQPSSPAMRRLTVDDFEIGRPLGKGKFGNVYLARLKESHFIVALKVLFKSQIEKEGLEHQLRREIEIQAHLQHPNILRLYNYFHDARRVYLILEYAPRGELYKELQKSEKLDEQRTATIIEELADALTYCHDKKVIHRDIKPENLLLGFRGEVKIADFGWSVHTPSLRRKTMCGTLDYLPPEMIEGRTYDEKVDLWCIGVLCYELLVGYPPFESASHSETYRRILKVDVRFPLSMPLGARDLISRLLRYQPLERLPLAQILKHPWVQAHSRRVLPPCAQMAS

[3] = biological target: T2, Testis-specific serine/threonine-protein kinase 1 (Homo sapiens) (UniProt Q9BXA7); experiment: Inhibition of human full length TSSK1 expressed in baculovirus assessed as substrate phosphorylation using fluorescence-labelled peptides as substrate at 9 uM after 90 mins by microfluidic peptide phosphorylation assay
T2 sequence (whole entry): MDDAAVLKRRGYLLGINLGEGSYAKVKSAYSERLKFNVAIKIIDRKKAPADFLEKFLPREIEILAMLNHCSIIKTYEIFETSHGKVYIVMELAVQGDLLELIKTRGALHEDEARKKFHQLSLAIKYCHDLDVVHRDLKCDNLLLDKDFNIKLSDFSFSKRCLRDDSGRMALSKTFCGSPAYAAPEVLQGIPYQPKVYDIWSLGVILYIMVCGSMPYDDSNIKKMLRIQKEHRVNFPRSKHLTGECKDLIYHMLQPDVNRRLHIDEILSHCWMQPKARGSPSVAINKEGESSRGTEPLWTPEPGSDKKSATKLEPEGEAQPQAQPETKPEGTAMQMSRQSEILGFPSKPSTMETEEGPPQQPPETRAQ

[4] = biological target: T3, Serine/threonine-protein kinase 3 (Homo sapiens) (UniProt Q13188); experiment: Inhibition of human full length MST2 expressed in baculovirus assessed as substrate phosphorylation using fluorescence-labelled peptides as substrate at 2 uM after 90 mins by microfluidic peptide phosphorylation assay
T3 sequence (whole entry): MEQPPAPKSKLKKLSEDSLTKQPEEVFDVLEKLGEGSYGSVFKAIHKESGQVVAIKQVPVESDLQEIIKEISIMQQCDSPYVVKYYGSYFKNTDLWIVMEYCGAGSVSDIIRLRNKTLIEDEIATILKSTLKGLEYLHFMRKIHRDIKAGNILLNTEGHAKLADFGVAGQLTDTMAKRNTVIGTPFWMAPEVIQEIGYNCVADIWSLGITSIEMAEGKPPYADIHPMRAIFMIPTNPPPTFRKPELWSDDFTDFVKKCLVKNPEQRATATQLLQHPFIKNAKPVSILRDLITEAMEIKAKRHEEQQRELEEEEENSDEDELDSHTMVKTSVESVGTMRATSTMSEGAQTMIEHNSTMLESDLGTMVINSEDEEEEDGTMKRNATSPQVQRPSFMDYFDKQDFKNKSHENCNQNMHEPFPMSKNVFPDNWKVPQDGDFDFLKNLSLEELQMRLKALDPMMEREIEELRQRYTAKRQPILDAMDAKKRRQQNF

[5] = biological target: Insulin receptor (Homo sapiens) (UniProt P06213); experiment: Inhibition of human INSR catalytic domain expressed in baculovirus assessed as substrate phosphorylation using fluorescence-labelled peptides as substrate at 2 uM after 90 mins by microfluidic peptide phosphorylation assay
[6] = system: Tyrosine-protein kinase ABL1 (Homo sapiens), P00519 [Q252H]; experiment: Inhibition of human truncated ABL Q252H mutant expressed in baculovirus assessed as substrate phosphorylation using fluorescence-labelled peptides as substrate at 0.1 uM after 90 mins by microfluidic peptide phosphorylation assay
[7] = biological target: Tyrosine-protein kinase Fyn (Homo sapiens) (UniProt P06241); conditions: 0.1 uM
Chain of Tyrosine-protein kinase Fyn (Homo sapiens) (P06241 2-537 limits assumed): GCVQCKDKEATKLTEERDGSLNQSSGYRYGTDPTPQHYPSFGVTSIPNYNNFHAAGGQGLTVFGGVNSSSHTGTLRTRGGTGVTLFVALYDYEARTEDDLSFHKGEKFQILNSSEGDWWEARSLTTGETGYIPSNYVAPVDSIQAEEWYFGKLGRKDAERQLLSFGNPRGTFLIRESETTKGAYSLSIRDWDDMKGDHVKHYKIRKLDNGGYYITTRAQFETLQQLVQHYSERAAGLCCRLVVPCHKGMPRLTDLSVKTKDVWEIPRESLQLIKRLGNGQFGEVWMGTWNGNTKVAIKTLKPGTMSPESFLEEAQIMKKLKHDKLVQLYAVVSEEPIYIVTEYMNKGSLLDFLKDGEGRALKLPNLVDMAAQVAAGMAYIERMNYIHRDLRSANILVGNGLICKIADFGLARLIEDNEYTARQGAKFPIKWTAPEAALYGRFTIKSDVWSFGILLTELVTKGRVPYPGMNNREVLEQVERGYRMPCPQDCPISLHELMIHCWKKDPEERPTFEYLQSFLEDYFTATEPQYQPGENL
Description: Inhibition of human full length FYN expressed in baculovirus assessed as substrate phosphorylation using fluorescence-labelled peptides as substrate at 0.1 uM after 90 mins by microfluidic peptide phosphorylation assay

[8] = organism: Homo sapiens; experiment: Inhibition of human full length PKA expressed in baculovirus assessed as substrate phosphorylation using fluorescence-labelled peptides as substrate at 95 uM after 90 mins by microfluidic peptide phosphorylation assay
[9] = biological target: RAF proto-oncogene serine/threonine-protein kinase (Homo sapiens) (UniProt P04049); experiment: Inhibition of human truncated c-Raf expressed in baculovirus assessed as substrate phosphorylation using fluorescence-labelled peptides as substrate at […] after 90 mins by microfluidic peptide phosphorylation assay
Chain of RAF proto-oncogene serine/threonine-protein kinase (Homo sapiens) (P04049 whole entry, the tested form may be a part): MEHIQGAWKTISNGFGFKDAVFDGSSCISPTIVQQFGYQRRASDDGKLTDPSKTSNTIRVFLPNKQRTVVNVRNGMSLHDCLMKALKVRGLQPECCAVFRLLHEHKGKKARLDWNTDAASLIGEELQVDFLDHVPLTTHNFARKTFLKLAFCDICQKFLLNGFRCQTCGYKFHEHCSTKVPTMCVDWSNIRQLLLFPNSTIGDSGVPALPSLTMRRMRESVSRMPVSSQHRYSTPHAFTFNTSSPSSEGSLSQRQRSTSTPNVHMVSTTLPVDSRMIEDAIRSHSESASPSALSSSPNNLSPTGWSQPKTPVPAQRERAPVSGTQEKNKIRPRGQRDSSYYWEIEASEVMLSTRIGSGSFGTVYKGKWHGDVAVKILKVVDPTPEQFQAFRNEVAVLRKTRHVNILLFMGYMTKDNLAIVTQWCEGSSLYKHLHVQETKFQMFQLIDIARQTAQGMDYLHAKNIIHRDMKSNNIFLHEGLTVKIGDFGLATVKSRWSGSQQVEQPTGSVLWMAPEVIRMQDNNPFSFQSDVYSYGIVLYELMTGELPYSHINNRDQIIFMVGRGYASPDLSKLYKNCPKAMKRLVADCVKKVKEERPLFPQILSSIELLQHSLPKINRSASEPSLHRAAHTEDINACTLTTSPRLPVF

[10] = biological target: Ribosomal protein S6 kinase alpha-5 (Homo sapiens) (UniProt O75582); experiment: Inhibition of human full length MSK1 expressed in baculovirus assessed as substrate phosphorylation using fluorescence-labelled peptides as substrate at […] after 90 mins by microfluidic peptide phosphorylation assay
Chain of Ribosomal protein S6 kinase alpha-5 (Homo sapiens) (O75582 whole entry, looked up, the tested form may be a part): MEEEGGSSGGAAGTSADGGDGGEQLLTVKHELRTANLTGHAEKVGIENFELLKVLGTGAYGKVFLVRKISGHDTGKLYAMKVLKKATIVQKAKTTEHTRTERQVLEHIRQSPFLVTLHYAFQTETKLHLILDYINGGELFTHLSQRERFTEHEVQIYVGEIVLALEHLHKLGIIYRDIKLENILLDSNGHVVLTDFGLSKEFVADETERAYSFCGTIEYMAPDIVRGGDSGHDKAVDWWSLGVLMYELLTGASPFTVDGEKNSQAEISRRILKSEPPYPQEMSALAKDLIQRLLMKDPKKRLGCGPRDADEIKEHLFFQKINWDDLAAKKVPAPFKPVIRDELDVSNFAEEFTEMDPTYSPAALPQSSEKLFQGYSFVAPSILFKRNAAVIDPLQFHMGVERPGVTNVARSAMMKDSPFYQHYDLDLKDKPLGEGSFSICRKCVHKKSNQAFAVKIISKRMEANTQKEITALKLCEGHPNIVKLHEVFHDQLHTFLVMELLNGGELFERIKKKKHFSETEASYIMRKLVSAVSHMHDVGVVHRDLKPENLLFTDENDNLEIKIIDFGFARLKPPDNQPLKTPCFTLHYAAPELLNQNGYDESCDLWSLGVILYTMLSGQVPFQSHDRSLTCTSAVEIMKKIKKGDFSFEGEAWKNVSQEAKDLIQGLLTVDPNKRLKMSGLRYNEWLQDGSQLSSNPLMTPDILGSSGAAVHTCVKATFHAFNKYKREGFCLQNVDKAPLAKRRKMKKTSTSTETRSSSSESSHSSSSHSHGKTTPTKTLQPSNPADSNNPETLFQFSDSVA

[11] = biological target: Fibroblast growth factor receptor 1 (Homo sapiens) (UniProt P11362); experiment: Inhibition of human FGFR1 catalytic domain expressed in baculovirus assessed as substrate phosphorylation using fluorescence-labelled peptides as substrate at 0.06 uM after 90 mins by microfluidic peptide phosphorylation assay
Chain of Fibroblast growth factor receptor 1 (Homo sapiens) (P11362 22-822 limits assumed): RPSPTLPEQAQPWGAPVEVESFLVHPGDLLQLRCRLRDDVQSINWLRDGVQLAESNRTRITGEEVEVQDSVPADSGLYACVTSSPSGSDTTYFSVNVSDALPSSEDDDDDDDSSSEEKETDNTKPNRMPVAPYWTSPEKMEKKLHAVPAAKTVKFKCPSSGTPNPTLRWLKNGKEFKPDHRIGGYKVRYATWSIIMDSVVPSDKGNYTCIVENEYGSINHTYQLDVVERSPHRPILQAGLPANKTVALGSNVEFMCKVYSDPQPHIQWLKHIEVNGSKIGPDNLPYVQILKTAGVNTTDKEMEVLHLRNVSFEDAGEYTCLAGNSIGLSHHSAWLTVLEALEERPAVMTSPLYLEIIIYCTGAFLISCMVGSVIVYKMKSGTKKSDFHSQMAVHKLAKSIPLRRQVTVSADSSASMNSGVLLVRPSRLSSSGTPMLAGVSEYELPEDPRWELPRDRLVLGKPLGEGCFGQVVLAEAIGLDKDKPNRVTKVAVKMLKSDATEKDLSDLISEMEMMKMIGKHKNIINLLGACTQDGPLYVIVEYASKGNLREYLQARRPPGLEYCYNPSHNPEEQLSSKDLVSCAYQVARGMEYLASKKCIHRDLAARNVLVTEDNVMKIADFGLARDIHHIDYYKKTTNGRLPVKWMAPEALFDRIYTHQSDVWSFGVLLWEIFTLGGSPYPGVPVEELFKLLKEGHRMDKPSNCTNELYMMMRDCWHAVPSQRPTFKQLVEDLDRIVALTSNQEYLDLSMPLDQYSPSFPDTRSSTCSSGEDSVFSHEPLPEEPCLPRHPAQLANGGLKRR

[12] = biological target: T4, Inhibitor of nuclear factor kappa-B kinase subunit beta (Homo sapiens) (UniProt O14920); experiment: Inhibition of human full length IKK beta expressed in baculovirus assessed as substrate phosphorylation using fluorescence-labelled peptides as substrate at 0.06 uM after 90 mins by microfluidic peptide phosphorylation assay
T4 sequence (whole entry): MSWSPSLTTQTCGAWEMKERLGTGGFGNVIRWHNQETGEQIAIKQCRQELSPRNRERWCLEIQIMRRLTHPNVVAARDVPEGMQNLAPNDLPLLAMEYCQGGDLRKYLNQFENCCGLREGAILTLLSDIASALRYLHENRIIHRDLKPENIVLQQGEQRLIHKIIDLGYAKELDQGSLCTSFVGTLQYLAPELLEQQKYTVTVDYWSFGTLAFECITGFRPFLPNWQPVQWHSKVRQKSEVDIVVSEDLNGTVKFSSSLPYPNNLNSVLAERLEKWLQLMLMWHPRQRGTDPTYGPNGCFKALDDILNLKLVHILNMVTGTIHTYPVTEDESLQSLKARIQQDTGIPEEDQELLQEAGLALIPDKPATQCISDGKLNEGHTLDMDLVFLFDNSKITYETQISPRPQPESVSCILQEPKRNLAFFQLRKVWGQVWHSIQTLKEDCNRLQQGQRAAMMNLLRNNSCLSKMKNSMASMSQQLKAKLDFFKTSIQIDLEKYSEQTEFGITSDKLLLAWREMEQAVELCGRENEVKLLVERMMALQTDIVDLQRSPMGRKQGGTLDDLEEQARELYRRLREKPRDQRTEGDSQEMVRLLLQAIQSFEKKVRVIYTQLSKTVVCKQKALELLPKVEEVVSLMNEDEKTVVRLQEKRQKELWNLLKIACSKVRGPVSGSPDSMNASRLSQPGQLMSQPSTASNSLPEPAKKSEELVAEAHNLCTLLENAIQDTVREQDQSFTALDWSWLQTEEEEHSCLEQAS

SMILES: Clc1ccc(C2(c3ccc(-c4ncnc5[nH]cnc45)cc3)CCNCC2)cc1
- inhibition [1]: 31.5%

SMILES: c1nc(N2CCOCC2)c2nc[nH]c2n1
- inhibition [2]: 95.5%

SMILES: NCC1CN(c2ncnc3[nH]c4cnccc4c23)CCO1 (configuration not stated)
- inhibition [3]: 41.5%

SMILES: NC1CCN(c2ncnc3[nH]ccc23)CC1
- inhibition [4]: 17.5%
- inhibition [5]: 7.5%

SMILES: C[C@H](CN(C)C)Oc1nc(Nc2cc3cccc(Cl)c3cn2)cnc1C#N
- inhibition [6]: 4%
- inhibition [7]: 0%

SMILES: NCCc1ccc(-c2ncnc3[nH]cnc23)cc1
- inhibition [8]: 97.5%

SMILES: COC(=O)c1cnc(Nc2cnc(C#N)cn2)cc1NCC1CCNCC1
- inhibition [9]: 7%
- inhibition [10]: 8%

SMILES: NC1(Cc2ccc(Cl)cc2)CCN(c2ncnc3[nH]ccc23)CC1
- inhibition [11]: 0%
- inhibition [12]: 2%
